PMC9000482, “Inhibition of Aldose Reductase by Ginsenoside Derivatives via a Specific Structure Activity Relationship with Kinetics Mechanism and Molecular Docking Study” (Molecules, 2022)
Like-named read-outs stand apart in the source and are kept apart here. Marks after values point to notes of the source that are not given here.

Key:
[1] = target: T1, rat lens aldose reductase (RLAR) (Rattus norvegicus, UniProt P07943); experiment: RLAR inhibitory activity assay (rat lens homogenate, DL-glyceraldehyde substrate); type: biochemical; settings: for RLAR inhibitory activity (in words): at the concentrations tested
T1 construct: from tissue; host or cells: lens of Sprague-Dawley rats (supernatant of homogenate)
Protocol: A rat lens homogenate was prepared with minor modifications according to the method reported by Hayman et al.. Briefly, the lenses were removed from the eyes of Sprague-Dawley rats weighing 250–280 g. They were homogenized in sodium phosphate buffer (pH 6.2) that was prepared with dibasic sodium phosphate (Na2HPO4∙H2O, 0.66 g) and monobasic sodium phosphate (NaH2PO4∙H2O, 1.27 g) in 100 mL of double-distilled H2O. The homogenate was clarified by centrifugation at 10,000 rpm at 4 °C for 20 min and the resultant supernatant was frozen until use. A crude AR homogenate with a specific activity of 6.5 U/mg was used in all enzyme inhibition evaluations. The reaction solution consisted of 620 µL of 100 mM sodium phosphate buffer (pH 6.2), 90 µL of AR homogenate, 90 µL of 1.6 mM NADPH, and 9 µL of sample, while the substrate included 90 µL of 50 mM DL-glyceraldehyde. […] AR activity was determined by measuring the decrease in NADPH absorption at 340 nm over a 4 min period on an Ultrospec®2100pro UV/Visible spectrophotometer. SWIFT II Applications software (Amersham Biosciences, NJ, USA) was used for all data analyses. The inhibition percentage (%) was calculated as follows in Equation (1):[1 − (∆Asample/min − ∆Ablank/min)/(∆Acontrol/min − ∆Ablank/min)] × 100(1) in which ∆Asample/min represents the test sample and substrate’s reduction in absorbance over 4 min, and ∆A control/min represents the same reduction in absorbance, but with 100% DMSO (dimethyl sulfoxide) rather than the test sample.

[2] = target: T2, human recombinant aldose reductase (HRAR) (Homo sapiens, UniProt P15121); experiment: HRAR inhibition assay (DL-glyceraldehyde substrate); type: biochemical; settings: for HRAR inhibitory activity (in words): at the concentrations tested
T2 construct: purchased Wako Chemicals (Osaka, Japan)
Protocol: HRAR inhibition was studied according to Nishimura et al.. AR action was studied by measuring the reduction in NADPH absorption at 340 nm over a period of 1 min on a UV/visible spectrophotometer (Ultrospec®2100pro, Biochrom, Holliston, MA, USA). For HRAR inhibition, the HRAR enzyme (0.4 units), was used in all enzyme inhibition evaluations. […] The inhibition percentage (%) was measured as designated in the RLAR assay. The DA sample/min value characterizes the decrease in absorbance for 1 min with the test samples and substrate. The ability of each sample to inhibit HRAR was observed as an IC50 value (µM) and measured from the log-dose inhibition curve.

[3] = target: T1, rat lens aldose reductase (RLAR); experiment: Enzyme kinetics of RLAR inhibition (Lineweaver-Burk and Dixon plots); type: biochemical
Protocol: Enzyme inhibition with different concentrations ([…]) was assessed by monitoring the effects of different concentrations of the substrate. The following concentrations of test ginsenosides were used in the RLAR kinetics analysis: 0, 2, 10, and 50 µM for protopanaxadiol; 0, 0.5, 2.5, and 10 µM for (20S) ginsenoside Rg3; 0, 0.5, 2.5, and 10 µM for (20R) ginsenoside Rg3; 0, 0.1, 0.5, and 2.5 µM for ginsenoside Rh2; 0, 2, 10, and 50 µM for protopanaxatriol; 0, 0.8, 4, and 20 µM for ginsenoside Rf; 0, 0.8, 4, and 20 µM for (20S) ginsenoside Rg2, and 0, 0.5, 2.5, and 10 µM for ginsenoside Rh1. Using Lineweaver-Burk double reciprocal plots, the inhibition type was determined using various concentrations of DL-glyceraldehyde (5, 10, and 20 mM) for HRAR as a substrate in the presence of different concentrations of the active test ginsenosides. The concentrations of test ginsenosides in the HRAR kinetics analysis were as follows: 0, 0.1, 0.5, and 2.5 µM for protopanaxadiol; 0, 0.5, 2, and 10 µM for (20S) ginsenoside Rg3; 0, 1, 5, and 20 µM for (20R) ginsenoside Rg3; 0, 0.5, 2.5, and 10 µM for ginsenoside Rh2; 0, 0.1, 0.5, and 2.5 µM for compound K; 0, 1, 5, and 10 µM for protopanaxatriol; 0, 0.5, 4, and 20 µM for (20R) ginsenoside Rg2, and 0, 0.2, 2, and 5 µM for ginsenoside Rh1. The Dixon plot is a graphical method [1/enzyme velocity (1/V)] against inhibitor concentration [I] used to determine the type of enzyme inhibition; it was used to identify the dissociation or inhibition constant (Ki) for the enzyme-inhibitor complex. Dixon plots (single reciprocal plots) for RLAR and HRAR inhibition were obtained in the presence of 100, 50, and 10 mM RLAR, and 20, 10, and 5 mM HRAR DL-glyceraldehyde substrate. Thus, the type of enzyme inhibition was determined by interpreting the Lineweaver-Burk plots, and the inhibition constants (Ki) were determined by interpreting the Dixon plots.

[4] = system: sorbitol accumulation in rat lens; experiment: Lens culture and intracellular sorbitol measurement (ex vivo); type: cell-based, Sprague-Dawley rats; settings: 25 mM glucose, 6 days, sample 5 μg/mL, mean ± SD (n = 3); for inhibition at 5 µg/mL: Rattus norvegicus, 144 h
[5] = rat lens homogenate, substrate DL-glyceraldehyde, mean ± S.E.M. of triplicate experiments, read-out: RLAR IC50
[6] = substrate DL-glyceraldehyde, mean ± S.E.M. of triplicate experiments, read-out: HRAR IC50

Row | Compound | IC50 [1, 5] | IC50 [2, 6] | also measured
1 | CC(C)=CCCC(C)(O)C1CCC2(C)C1C(O)CC1C3(C)CCC(O)C(C)(C)C3C(OC3OC(CO)C(O)C(O)C3OC3OC(C)C(O)C(O)C3O)CC12C [(20S) ginsenoside Rg2] | 14.4 ± 0.99 µM | 15.7 ± 1.05 µM | RLAR Kiu (binding constant of inhibitor with enzyme-substrate complex) ([3]; Dixon plots): 17.04 µM; Ki ([3]; Dixon plots, read-out: RLAR Kic (binding constant of inhibitor with free enzyme)): 10.8 µM; RLAR Mode of Inhibition ([3]; Lineweaver-Burk plot): Mixed type; Sorbitol Content (mg)/Lens Wet Weight (g) [4]: 0.73 ± 0.01 ^c mg/g; inhibition at 5 µg/mL [4]: 57.5 ± 5.11%
2 | CC(C)=CCC[C@](C)(O[C@@H]1O[C@H](CO[C@@H]2OC[C@H](O[C@@H]3OC[C@@H](O)[C@H](O)[C@H]3O)[C@H](O)[C@H]2O)[C@@H](O)[C@H](O)[C@H]1O)[C@H]1CC[C@]2(C)[C@@H]1[C@H](O)C[C@@H]1[C@@]3(C)CC[C@H](O[C@@H]4O[C@H](CO)[C@@H](O)[C@H](O)[C@H]4O[C@@H]4O[C@H](CO)[C@@H](O)[C@H](O)[C@H]4O)C(C)(C)[C@@H]3CC[C@]12C [Ginsenoside Ra1] | > 200 µM | 75.6 ± 4.33 µM | RLAR inhibitory activity (in words) [1]: inactive
3 | CC(C)=CCC[C@](C)(O[C@@H]1O[C@H](CO[C@@H]2O[C@@H](CO)[C@H](O)[C@H]2O[C@@H]2OC[C@@H](O)[C@H](O)[C@H]2O)[C@@H](O)[C@H](O)[C@H]1O)[C@H]1CC[C@]2(C)[C@@H]1[C@H](O)C[C@@H]1[C@@]3(C)CC[C@H](O[C@@H]4O[C@H](CO)[C@@H](O)[C@H](O)[C@H]4O[C@@H]4O[C@H](CO)[C@@H](O)[C@H](O)[C@H]4O)C(C)(C)[C@@H]3CC[C@]12C [Ginsenoside Ra2] | 178 ± 7.39 µM | 82.43 ± 0.44 µM | 
4 | CC(C)=CCC[C@](C)(O[C@@H]1O[C@H](CO[C@@H]2O[C@H](CO)[C@@H](O)[C@H](O)[C@H]2O)[C@@H](O)[C@H](O)[C@H]1O)[C@H]1CC[C@]2(C)[C@@H]1[C@H](O)C[C@@H]1[C@@]3(C)CC[C@H](O[C@@H]4O[C@H](CO)[C@@H](O)[C@H](O)[C@H]4O[C@@H]4O[C@H](CO)[C@@H](O)[C@H](O)[C@H]4O)C(C)(C)[C@@H]3CC[C@]12C [Ginsenoside Rb1] | 103 ± 7.45 µM | 93.3 ± 5.76 µM | 
5 | CC(C)=CCC[C@](C)(O[C@@H]1O[C@H](CO[C@@H]2OC[C@H](O)[C@H](O)[C@H]2O)[C@@H](O)[C@H](O)[C@H]1O)[C@H]1CC[C@]2(C)[C@@H]1[C@H](O)C[C@@H]1[C@@]3(C)CC[C@H](O[C@@H]4O[C@H](CO)[C@@H](O)[C@H](O)[C@H]4O[C@@H]4O[C@H](CO)[C@@H](O)[C@H](O)[C@H]4O)C(C)(C)[C@@H]3CC[C@]12C [Ginsenoside Rb2] | 121 ± 3.43 µM | > 100 µM | HRAR inhibitory activity (in words) [2]: inactive
6 | CC(C)=CCC[C@](C)(O[C@@H]1O[C@H](CO[C@@H]2OC[C@@H](O)[C@H](O)[C@H]2O)[C@@H](O)[C@H](O)[C@H]1O)[C@H]1CC[C@]2(C)[C@@H]1[C@H](O)C[C@@H]1[C@@]3(C)CC[C@H](O[C@@H]4O[C@H](CO)[C@@H](O)[C@H](O)[C@H]4O[C@@H]4O[C@H](CO)[C@@H](O)[C@H](O)[C@H]4O)C(C)(C)[C@@H]3CC[C@]12C [Ginsenoside Rb3] | 117 ± 6.89 µM | 79 ± 4.55 µM | 
7 | CC(C)=CCC[C@](C)(O[C@@H]1O[C@H](CO[C@@H]2O[C@@H](CO)[C@H](O)[C@H]2O)[C@@H](O)[C@H](O)[C@H]1O)[C@H]1CC[C@]2(C)[C@@H]1[C@H](O)C[C@@H]1[C@@]3(C)CC[C@H](O[C@@H]4O[C@H](CO)[C@@H](O)[C@H](O)[C@H]4O[C@@H]4O[C@H](CO)[C@@H](O)[C@H](O)[C@H]4O)C(C)(C)[C@@H]3CC[C@]12C [Ginsenoside Rc] | > 200 µM | 56.6 ± 2.19 µM | RLAR inhibitory activity (in words) [1]: inactive
8 | CC(C)=CCC[C@](C)(O[C@@H]1O[C@H](CO)[C@@H](O)[C@H](O)[C@H]1O)[C@H]1CC[C@]2(C)[C@@H]1[C@H](O)C[C@@H]1[C@@]3(C)CC[C@H](O[C@@H]4O[C@H](CO)[C@@H](O)[C@H](O)[C@H]4O[C@@H]4O[C@H](CO)[C@@H](O)[C@H](O)[C@H]4O)C(C)(C)[C@@H]3CC[C@]12C [Ginsenoside Rd] | 89.6 ± 2.99 µM | 37.5 ± 1.33 µM | 
9 | CC(C)=CCC[C@](C)(O[C@@H]1O[C@H](CO)[C@@H](O)[C@H](O)[C@H]1O)[C@H]1CC[C@]2(C)[C@@H]1[C@H](O)C[C@@H]1[C@@]3(C)CC[C@H](O)C(C)(C)[C@@H]3[C@@H](O[C@@H]3O[C@H](CO)[C@@H](O)[C@H](O)[C@H]3O[C@@H]3O[C@@H](C)[C@H](O)[C@@H](O)[C@H]3O)C[C@]12C [Ginsenoside Re] | 81.3 ± 2.18 µM | 43.4 ± 3.11 µM | 
10 | CC(C)=CCC[C@](C)(O[C@@H]1O[C@H](CO)[C@@H](O)[C@H](O)[C@H]1O)[C@H]1CC[C@]2(C)[C@@H]1[C@H](O)C[C@@H]1[C@@]3(C)CC[C@H](O)C(C)(C)[C@@H]3[C@@H](O[C@@H]3O[C@H](CO)[C@@H](O)[C@H](O)[C@H]3O)C[C@]12C [Ginsenoside Rg1] | 49.5 ± 1.88 µM | 27.6 ± 2.12 µM | 
11 | CC(C)=CC/C=C(\C)[C@H]1CC[C@]2(C)[C@@H]1[C@H](O)C[C@@H]1[C@@]3(C)CC[C@H](O[C@@H]4O[C@H](CO)[C@@H](O)[C@H](O)[C@H]4O[C@@H]4O[C@H](CO)[C@@H](O)[C@H](O)[C@H]4O)C(C)(C)[C@@H]3CC[C@]12C [Ginsenoside Rg5] |  |  | IC50 [1]: 54.5 ± 1.22 µM; IC50 [2]: 38.6 ± 2.91 µM
12 | CC(=O)OC[C@H]1O[C@@H](O[C@H]2[C@H](O[C@H]3CC[C@@]4(C)C(CC[C@]5(C)C4C[C@@H](O)[C@@H]4C([C@](C)(CCC=C(C)C)O[C@@H]6O[C@H](CO[C@@H]7OC[C@H](O)[C@H](O)[C@H]7O)[C@@H](O)[C@H](O)[C@H]6O)CC[C@]45C)C3(C)C)O[C@H](CO)[C@@H](O)[C@@H]2O)[C@H](O)[C@@H](O)[C@@H]1O (stereo partly drawn) [Ginsenoside Rs1] | 143 ± 3.77 µM | > 100 µM | HRAR inhibitory activity (in words) [2]: inactive
13 | CC(=O)OC[C@H]1O[C@@H](O[C@H]2[C@H](O[C@H]3CC[C@@]4(C)C(CC[C@]5(C)C4C[C@@H](O)[C@@H]4C([C@](C)(CCC=C(C)C)O[C@@H]6O[C@H](CO[C@@H]7O[C@@H](CO)[C@H](O)[C@H]7O)[C@@H](O)[C@H](O)[C@H]6O)CC[C@]45C)C3(C)C)O[C@H](CO)[C@@H](O)[C@@H]2O)[C@H](O)[C@@H](O)[C@@H]1O (stereo partly drawn) [Ginsenoside Rs2] | 149 ± 4.22 µM | > 100 µM | HRAR inhibitory activity (in words) [2]: inactive
14 | O=c1c(O)c(-c2ccc(O)c(O)c2)oc2cc(O)cc(O)c12 [Quercetin, reference compound] |  |  | Sorbitol Content (mg)/Lens Wet Weight (g) [4]: 0.22 ± 0.01 ^a mg/g; inhibition at 5 µg/mL [4]: 87.2 ± 3.91%
15 | O=C(O)Cn1c(=O)n(Cc2ccc(Br)cc2F)c(=O)c2ccc(Cl)cc21 [Zenaresta, Zenarestat, reference compound] |  |  | IC50 [2]: 0.69 ± 0.11 µM
